Test results: PubChem BioAssay AID248 (DTP/NCI, 2004)
Values joined by “and” are separate entries in the source; they are usually repeats but may differ in a detail not shown here. Equal values may be shown once. Toxic doses and inconclusive results are not listed. No stated cut-off is given here; in the data, active means T/C of 150% or more; inactive means T/C below 125%.

Tested on: L1210 leukemia ip in BDF1 mice, survival T/C
Experiment: NCI In Vivo Anticancer Drug Screen. Data for tumor model L1210 Leukemia (intraperitoneal) in B6D2F1 (BDF1) mice
Settings: endpoint: mean survival time, higher = longer survival
Summary of the method: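 Mice bearing the transplanted tumor received compound or vehicle. Survival of the treated group was divided by that of the vehicle-treated control group to give the ratio.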

[1] = dose: 100.0 mg/kg/injection, schedule: Q04DX003 (ip), vehicle: saline
[2] = dose: 200.0 mg/kg/injection, schedule: Q04DX003 (ip), vehicle: saline
[3] = dose: 400.0 mg/kg/injection, schedule: Q04DX003 (ip), vehicle: saline
[4] = dose: 100.0 mg/kg/injection, schedule: Q01DX001 (ip), vehicle: other
[5] = dose: 200.0 mg/kg/injection, schedule: Q01DX001 (ip), vehicle: other
[6] = dose: 400.0 mg/kg/injection, schedule: Q01DX001 (ip), vehicle: other
[7] = dose: 100.0 mg/kg/injection, schedule: Q01DX001 (ip), vehicle: saline
[8] = dose: 200.0 mg/kg/injection, schedule: Q01DX001 (ip), vehicle: saline
[9] = dose: 400.0 mg/kg/injection, schedule: Q01DX001 (ip), vehicle: saline
[10] = dose: 50.0 mg/kg/injection, schedule: Q01DX001 (ip), vehicle: saline
[11] = dose: 100.0 mg/kg/injection, schedule: Q01DX009 (ip), vehicle: Klucel (hydroxypropylcellulose) (HPC)
[12] = dose: 100.0 mg/kg/injection, schedule: Q04DX003 (ip), vehicle: Klucel (hydroxypropylcellulose) (HPC)
[13] = dose: 200.0 mg/kg/injection, schedule: Q01DX009 (ip), vehicle: Klucel (hydroxypropylcellulose) (HPC)
[14] = dose: 200.0 mg/kg/injection, schedule: Q04DX003 (ip), vehicle: Klucel (hydroxypropylcellulose) (HPC)
[15] = dose: 400.0 mg/kg/injection, schedule: Q04DX003 (ip), vehicle: Klucel (hydroxypropylcellulose) (HPC)

Measured: T/C

CCCCCCCCC(CCCCCCCC)CCC1CCCCC1
inactive: dose: 100.0 mg/kg/injection, schedule: Q01DX001 (ip), vehicle: saline + alcohol 95 % of control | dose: 200.0 mg/kg/injection, schedule: Q01DX001 (ip), vehicle: saline + alcohol 108 % of control | dose: 400.0 mg/kg/injection, schedule: Q01DX001 (ip), vehicle: saline + alcohol 100 % of control

COc1c2c(c(OC)c3ccccc13)C(=O)C1=C(CC=CC1)C2=O
inactive: dose: 50.0 mg/kg/injection, schedule: Q01DX005 (ip), vehicle: water 94 % of control | dose: 100.0 mg/kg/injection, schedule: Q01DX005 (ip), vehicle: water 87 % of control | dose: 200.0 mg/kg/injection, schedule: Q01DX005 (ip), vehicle: water 92 % of control

O=C(O)CNC(=O)c1ccc(C(=O)NCC(=O)O)cc1
inactive: [1] 106 % of control | [2] 105 % of control | [3] 97 % of control

c1ccc(-c2csc3cccc[n+]23)cc1
inactive: dose: 100.0 mg/kg/injection, schedule: Q04DX003 (ip), vehicle: saline with Tween-80 102 % of control

CCCCCCCCCCCCCCCCCC(=O)C(C(=O)OCC)C(=O)OCC
inactive: [4] 93 % of control | [5] 88 % of control | [6] 90 % of control

Cn1nnnc1CCN(N)CCN(N)CCc1nnnn1C
inactive: [7] 103 % of control | [8] 92 % of control | [9] 95 % of control

COc1ccc2c(c1)C1CCCCC1SCC2=O (configuration not stated)
inactive: [4] 100 % of control | [5] 96 % of control | [6] 96 % of control

CCOCCOC(=O)COCC(=O)OCCOCC
inactive: [7] 100 % of control | [8] 94 % of control | [9] 98 % of control

C=C(C)C1(CCCC)C(=O)NC(=O)NC1=O
inactive: dose: 75.0 mg/kg/injection, schedule: Q01DX001 (ip), vehicle: saline 104 % of control and 102 % of control | dose: 150.0 mg/kg/injection, schedule: Q01DX001 (ip), vehicle: saline 107 % of control and 100 % of control | dose: 300.0 mg/kg/injection, schedule: Q01DX001 (ip), vehicle: saline 102 % of control

CSc1ncnc2nncnc12
inactive: dose: 5.0 mg/kg/injection, schedule: Q01DX001 (ip), vehicle: other 104 % of control | dose: 10.0 mg/kg/injection, schedule: Q01DX001 (ip), vehicle: other 106 % of control | dose: 20.0 mg/kg/injection, schedule: Q01DX001 (ip), vehicle: other 101 % of control | dose: 40.0 mg/kg/injection, schedule: Q01DX001 (ip), vehicle: other 98 % of control

Cc1ccc(S(=O)(=O)O/C=C2\CCOC2=O)cc1
inactive: dose: 100.0 mg/kg/injection, schedule: Q04DX002 (ip), vehicle: Klucel (hydroxypropylcellulose) (HPC) 105 % of control | dose: 200.0 mg/kg/injection, schedule: Q04DX002 (ip), vehicle: Klucel (hydroxypropylcellulose) (HPC) 112 % of control

O=c1cc(-c2ccccc2)oc2cc(O)cc(O)c12
inactive: [10] 100 % of control | [7] 100 % of control | [8] 100 % of control | [9] 100 % of control

CCCCCCCCCCCCCCCC/C(C)=C\C(=O)OC
inactive: dose: 100.0 mg/kg/injection, schedule: Q04DX003 (ip), vehicle: other 93 % of control | dose: 200.0 mg/kg/injection, schedule: Q04DX003 (ip), vehicle: other 93 % of control | dose: 400.0 mg/kg/injection, schedule: Q04DX003 (ip), vehicle: other 93 % of control

Cc1ccc(S(=O)(=O)N2CCCCC2)cc1
inactive: [1] 91 % of control | [2] 96 % of control | [3] 97 % of control

COc1cc(N(CCCl)CCCl)ccc1CN1CCCN(Cc2ccc(N(CCCl)CCCl)cc2OC)C1c1ccccc1O
inactive: dose: 50.0 mg/kg/injection, schedule: Q01DX009 (ip), vehicle: Klucel (hydroxypropylcellulose) (HPC) 96 % of control | [11] 109 % of control | [12] 110 % of control | [13] 90 % of control | [14] 103 % of control

O=C1C2C(=C3CCCCC3)C=CC2C1(c1ccccc1)c1ccccc1 (configuration not stated)
inactive: [12] 101 % of control | [14] 95 % of control | [15] 94 % of control

O/C(=C/C(=S)S)c1cccs1
inactive: dose: 0.78 mg/kg/injection, schedule: Q01DX009 (ip), vehicle: water 103 % of control | dose: 1.56 mg/kg/injection, schedule: Q01DX009 (ip), vehicle: water 105 % of control | dose: 3.12 mg/kg/injection, schedule: Q01DX009 (ip), vehicle: water 102 % of control | dose: 6.25 mg/kg/injection, schedule: Q01DX009 (ip), vehicle: water 95 % of control | dose: 12.5 mg/kg/injection, schedule: Q04DX003 (ip), vehicle: water 102 % of control | dose: 25.0 mg/kg/injection, schedule: Q04DX003 (ip), vehicle: water 94 % of control | dose: 50.0 mg/kg/injection, schedule: Q04DX003 (ip), vehicle: water 100 % of control

O=c1sc2ccccc2n1-c1ccccc1
inactive: [12] 96 % of control | [14] 93 % of control

C#CCOCCCC(=O)O
inactive: dose: 100.0 mg/kg/injection, schedule: Q01DX009 (ip), vehicle: saline 91 % of control | dose: 200.0 mg/kg/injection, schedule: Q01DX009 (ip), vehicle: saline 89 % of control

CC(C)CCCCCc1ccc(OCCOc2ccc(C(=O)Nc3ccc(S(=O)(=O)F)cc3[N+](=O)[O-])cc2)cc1
inactive: dose: 100.0 mg/kg/injection, schedule: Q01DX001 (ip), vehicle: Klucel (hydroxypropylcellulose) (HPC) 100 % of control | dose: 200.0 mg/kg/injection, schedule: Q01DX001 (ip), vehicle: Klucel (hydroxypropylcellulose) (HPC) 94 % of control | dose: 400.0 mg/kg/injection, schedule: Q01DX001 (ip), vehicle: Klucel (hydroxypropylcellulose) (HPC) 94 % of control

CCOC(=O)C1(C(=O)OCC)NC(=O)CC1c1ccccc1 (configuration not stated)
inactive: [11] 94 % of control | [12] 92 % of control | [13] 101 % of control | [14] 100 % of control | dose: 400.0 mg/kg/injection, schedule: Q01DX009 (ip), vehicle: Klucel (hydroxypropylcellulose) (HPC) 92 % of control | [15] 105 % of control

CCCCOCCOc1ccc(C(=O)OC)cc1
inactive: dose: 100.0 mg/kg/injection, schedule: Q04DX003 (ip), vehicle: saline sonified 101 % of control | dose: 200.0 mg/kg/injection, schedule: Q04DX003 (ip), vehicle: saline sonified 111 % of control | dose: 400.0 mg/kg/injection, schedule: Q04DX003 (ip), vehicle: saline sonified 101 % of control

O=C(Nc1ccc(N=C(NC2CCCCC2)c2ccccc2)cc1)c1ccc(C(=O)Nc2ccc(N=C(NC3CCCCC3)c3ccccc3)cc2)cc1
inactive: dose: 15.0 mg/kg/injection, schedule: Q01DX Z (ip), vehicle: carboxymethylcellulose (CMC) 101 % of control | dose: 30.0 mg/kg/injection, schedule: Q01DX Z (ip), vehicle: carboxymethylcellulose (CMC) 97 % of control | dose: 60.0 mg/kg/injection, schedule: Q01DX Z (ip), vehicle: carboxymethylcellulose (CMC) 101 % of control | dose: 120.0 mg/kg/injection, schedule: Q01DX Z (ip), vehicle: carboxymethylcellulose (CMC) 97 % of control

O=P(c1ccccc1)(c1ccccc1)c1ccccc1
inactive: [10] 102 % of control | [7] 98 % of control | [8] 98 % of control

C1=CN2CC(c3ccccc3)=NNC2c2ccccc21 (configuration not stated)
inactive: dose: 100.0 mg/kg/injection, schedule: Q04DX003 (ip), vehicle: alcohol 107 % of control | [1] 97 % of control | [2] 97 % of control
